Here are results for one compound from paper PMC9381536, “Non-apoptotic cell death induction via sapogenin based supramolecular particles” (Scientific Reports, 2022).

The structures appear in SMILES notation.

One assay relates to CHOP. Briefly: CHOP expression (immunoblot, q-RTPCR). The assay is classed as cell-based. From the text: Figure 3 mRNA microarray analysis was used to identify differentially expressed genes via AG-08 treatment. (A) Heatmap representing the expressions of 193 genes with significant different expression in AG-08 treated cells compared with control. Heatmap was generated by GraphPad Prism version 8 (https://www.graphpad.com/scientific-software/prism/). (B) Protein–protein network analysis was formed via STRING. The thickness of the connecting lines indicates the strength of data support for physical and/or functional associations. (C) Pathway enrichment was determined using GO, KEGG, and Reactome pathway analysis. […] Size of circle represents the significance of enrichment. (D) The protein levels of CHOP were determined via IB. 0.5 µg/ml tunicamycin (Tun) was used as positive control. The experiments were repeated three times independently; with one representative result shown. (E) mRNA level of the CHOP was investigated using quantitative PCR (q-RTPCR). Error bars represent standard error (s.e.). p-values were calculated with respect to vehicle-treated cells by one-way Anova test. (**p < 0.005, ****p < 0.0001). (F) The expression and localization of Calnexin protein were evaluated using immunofluorescence via anti-Calnexin antibody (scale bar 25 µm).
The total RNA was isolated using Total RNA Isolation Kit (Bio-Rad, US) following the manufacturer’s instructions. cDNAs were synthesized using The iScript cDNA synthesis kit (Bio-Rad, US) according to the manufacturer’s instructions. To gene expression analysis, specific primers were designed against CHOP (forward: […], reverse: […] ). Quantitative RT-PCR (qRT-PCR) was performed using The SYBR Green I Mastermix (Bio-Rad, US) and LightCycler480 thermocycler (Roche). […] For relative quantification, reaction efficiency incorporated ΔΔCq formula was used. […]
Cell lysates were prepared by RIPA buffer (1XPBS, 1% nonidet P-40, 0.5% sodium deoxycholate, and 0.1% SDS, pH 8.0). Protein concentrations were determined by bicinchoninic acid (BCA) protein assay (Thermo Fisher Scientific, US). […]
A general note: A western blot detects proteins with antibodies after separation by electrophoresis.

The next assay deals with EEA1. In words: EEA1 immunofluorescence. Format: cell-based, Human. As to conditions: HCC1937, AG-08 16 h. The method, then: Figure 2 AG-08 is related with endosomal pathway. (A) After pre-treatment with 20 µM pitstop II, 0.5 mM methyl-β-cyclodextrin (MβC), 80 µM dynasore, 20 µM cytochalasin d (Cyto D) or 20 µM chlorpromazine (CPZ) for 1 h, HCC1937 cells were treated with 8 µM AG-08 for 24 h. Then cell viability was determined by using WST-1. Reported values were normalized on cells treated with only AG-08. Error bars are the standard deviations (n = 3). p-values were calculated with respect to AG-08 treated cells by two-tailed equal variance Student’s t-test (*p < 0.05, ***p < 0.001, ****p < 0.0001) (B) HCC1937 cells were treated with brefeldin A (Bref A) for 1 h and then treated with 8 µM AG-08 for 24 h. Error bars represent standard deviations (n = 3). p-values were calculated with respect to AG-08-treated cells (*p < 0.05, **p < 0.005, ***p < 0.001). (C) Following AG-08 treatment for 16 h, EEA1 proteins were stained using the anti-EEA1 antibody in HCC1937 cells (scale bar = 25 µm).
Cells were grown on glass coverslips and treated with AG-08. At the end of treatments, cells were washed twice with ice-cold PBS and fixed with 4% paraformaldehyde in PBS for 30 min at 4 °C. After washing 6 times with PBS, cells were permeabilized and blocked with 0.01% saponin and 0,01% BSA in PBS. […] Mounted samples were analyzed by fluorescence microscopy (Olympus IX70, Japan).

For the next assay, the system named is HCC1937. Briefly: LDH (lactate dehydrogenase) releasing assay. As to conditions: LDH release and immunoblotting. Format: cell-based, Human. Here is the method:
Figure 5 The cytotoxic activity of analogs depends on particle formation like AG-08. […] The level of released LDH was calculated as fold change relative to vehicle. […] After 24 h, cell viability was measured. […] Cell viability after 24 h was measured. The reported values correspond to mean values ± standard deviation (± s.d) of three experiments. ***p < 0.001, ****p < 0.0001.
LDH-Cytotoxicity Colorimetric Assay Kit II (Biovision) was used to detect LDH releasing. Briefly, HCC1937 were seeded on 96 well plate. After treatment with compounds, cells were centrifuged at 600×g for 10 min. 10 µl supernatant were transferred into clean 96 well plate and added into 100 µl LDH Reaction Mix. Following 30 min incubation at room temperature, 10 µl stop solution were added, and absorbance was measured at 450 nm (Varioscan, Thermo Fisher Scientific, US).
(LDH in the medium is a marker of cell lysis.)

With `Cc1ccc(S(=O)(=O)OC2CCC3(C)C4=CCC5(C)C(C6(C)CCC(C(C)(C)O)O6)C(O)CC5(C)C4C=CC3C2(C)C)cc1` (centres unmarked) [AG-08], the CHOP protein level entry in the assay with CHOP (8 µM) is given as “enhanced”; in the assay on CHOP (16 µM) it was “decreased”. The “CHOP (DDIT3) expression” value in the assay with CHOP (AG-08 treated cells) is recorded as “upregulated in a dose-dependent manner”. Besides, in the assay on EEA1, the EEA1 positive vesicles entry is listed as “dramatic decrease”. In addition, the “mode of cell death” value with HCC1937 is “induced necrotic cell death”.
